Assay results as given in publication PMC4811302, “Human β-defensin 3 contains an oncolytic motif that binds PI(4,5)P2 to mediate tumour cell permeabilisation” (Oncotarget, 2015).
Where no end group is shown, it is not given here.

Key:
[1] = ATP-encapsulated liposome leakage assay, PC:PI(4,5)P2; settings: 15 μM defensin
Method: Liposomes were generated as described previously using natural PI(4,5)P2 (porcine brain, in chloroform:methanol:water at 20:9:1 molar ratio) and PC (chicken egg, in chloroform) purchased from Avanti Polar Lipids. PC only or PC:PI(4,5)P2 (95:5 molar ratio) solutions were dried under a stream of nitrogen gas followed by overnight vacuum-drying. The lipid films were rehydrated to a final concentration of 5 mg/mL in 20 mM HEPES (pH 7.2) containing 5 mg/mL adenosine-5-triphosphate disodium salt (ATP; Sigma-Aldrich) at 37°C for 1 h. After three subsequent cycles of freezing (liquid nitrogen) and thawing (25°C), multilamellar liposomes were extruded 15–20 times through a mini-extruder (Avanti Polar Lipids). Free ATP was removed by three centrifugal washes with 20 mM HEPES at 16,500 g prior to the ATP release assay. Liposomes treated with 1% Triton X-100 were included as positive control and assigned as total lysis, whereas HEPES only control served as background reading. The level of ATP release at a particular time point was determined by quotient of the corrected reading (after subtracting background) of the sample at that time point and corrected reading of total lysis, as per the following equation: % Lysist=Samplet−HEPESt/Triton X−HEPES×100

[2] = tested on: U937 and HeLa cells; experiment: Cell viability assay, mutants compared to wild-type; assay type: cell-based, human; settings: cell viability assays, 48 h
Method: (§1) Different concentrations of HBD-3 were added to cells seeded in 96-well plates in appropriate complete medium. Initial plating cell density was pre-optimised to avoid confluence at endpoint. After 48 h, cell viability was determined using 3-(4,5-dimethylthiazol-2-yl)-2,5-diphenyltetrazolium bromide (MTT) (Sigma-Aldrich, MO) for adherent cells (HeLa, PC3, HUVEC, AHDF, CASMC) or 3-(4,5-dimethylthiazol-2-yl)-5-(3-carboxymethoxyphenyl)-2-(4-sulfophenyl)-2H-tetrazolium (MTS) (Promega, Madison, WI) coupled with phenzine methosulfate (PMS) (Promega) for suspension cells (U937, HL-60, Jurkat) prior to absorbance measurement at 570 nm and […], respectively. Absorbance readings of untreated control wells was designated as 100% cell viability.

[3] = tested on: HeLa cells; experiment: Tetrazolium-coupled cell viability assay, HBD-3 and mutants, HeLa; assay type: cell-based, human; settings: 48 h
Method: as §1

[4] = Protein-lipid overlay assay, PIP strip; assay type: binding; settings: 1 μg/mL protein, immunodetection, densitometry
Method: Protein-lipid overlay assays using Membrane strip™ or PIP strip™ (Echelon Biosciences, Salt Lake City, UT) were performed using 1 μg/mL proteins as described previously. Lipid binding was immunodetected using a combination of rabbit anti-HBD-3 IgG (50 μg/mL) and horseradish peroxidase-conjugated donkey-anti-rabbit Ig (10 μg/mL) antibodies. Chemiluminescence signal intensity was quantitated by densitometry analysis using ImageJ (National Institutes of Health, Bethesda, MD; http://imagej.nih.gov/ij/).

[5] = tested on: plasma membrane PI(4,5)P2 of U937 cells; experiment: Anti-PI(4,5)P2 antibody blocking assay; assay type: cell-based, human; settings: 15 μM defensins 30 min or 10 mM neomycin 3 h; cells fixed, saponin-lysed, FITC-conjugated anti-PI(4,5)P2 IgM, flow cytometry
Method: U937 cells at 1×10^6 cells/mL were treated with 10 mM neomycin for 3 h and/or 15 μM defensins for 30 min in serum-free RPMI 1640 medium containing 0.1% BSA, followed by 20 min fixation with 2% (v/w) paraformaldehyde (Sigma-Aldrich), 10 min lysis with 0.5% (w/v) saponin (Sigma-Aldrich), and then 30 min blocking with 3% (w/v) BSA. Three 5-min centrifugal washes with PBS at 500 g were also included between steps. FITC-conjugated mouse anti-PI(4,5)P2 IgM (Echelon Biosciences) or IgM control (GeneTex, Irvine, CA) was subsequently used at 10 μg/mL for 30 min prior to flow cytometry analysis.

[6] = tested on: U937 cells; experiment: Tetrazolium-coupled cell viability assay, HBD-3 and mutants, U937; assay type: cell-based, human; settings: 48 h
Method: as §1

[7] = tested on: U937 cells; experiment: Lipid inhibition of HBD-3 mediated PI uptake; assay type: cell-based, human; settings: 15 μM HBD-3 pre-incubated with 50 μM synthetic lipid, flow cytometry, three independent experiments
Method: (§2) Cells suspended at 1×10^6 cells/mL in serum-free medium containing 0.1% (w/v) bovine serum albumin (BSA) (Sigma-Aldrich) were treated with HBD-3 at 37°C for 30 min. Nucleic acid stain propidium iodide (PI) was then added to a final concentration of 1 μg/mL and cells subjected to flow cytometry analysis using BD FACSCanto II Flow Cytometer and BD FACSDiva Software v6.1.1 (BD Biosciences, San Jose, CA). For each flow cytometry reading, 10,000 cells, gated appropriately based on forward scattering and side scattering, were recorded. The resultant data were processed using FlowJo software (Tree Star, San Carlos, CA) to determine PI-positivity, which reflects the level of membrane permeabilisation. For lipid inhibition assays, 15 μM HBD-3 was pre-incubated with 50 μM synthetic lipids, including L-α-phosphatidic acid (PA), L-α-phosphatidylcholine (PC), L-α-phosphatidylethanolamine (PE), L-α-phosphatidylserine (PS), L-α-phosphatidylinositol-4-phosphate (PI(4)P), L-α-phosphatidylinositol-3,5-bisphosphate (PI(3,5)P2), L-α-phosphatidylinositol-4,5-bisphosphate (PI(4,5)P2) and L-α-phosphatidylinositol-3,4,5-trisphosphate (PI(3,4,5)P)3. All lipids were sourced from Avanti Polar Lipids, Alabaster, AL. For neomycin inhibition experiments, U937 cells at 1×10^6 cells/mL were pre-treated with 10 mM neomycin (Sigma-Aldrich), followed by three centrifugal washes with phosphate buffered saline (PBS) at 500 g for 5 min.

[8] = tested on: tumour cells; settings: in vitro; ref [11]; cited from earlier work
From the text: The underlying mechanism was described to involve the entry of NaD1 into the cell followed by binding to PI(4,5)P2, leading to membrane permeabilisation, membrane blebbing and eventually to cell lysis.

[9] = tested on: U937 cells; experiment: Neomycin inhibition of membrane permeabilisation (PI uptake); assay type: cell-based, human; settings: cells pre-treated with 10 mM neomycin, PI uptake by flow cytometry; effect overcome at higher HBD-3 concentrations
Method: as §2, with “For neomycin inhibition experiments, U937 cells at 1×10^6 cells/mL were pre-treated with 10 mM neomycin (Sigma-Aldrich), followed by three centrifugal washes with phosphate buffered saline (PBS) at 500 g for 5 min.” left out

HBD-3(K39A): alanine mutant of HBD-3 at K39, recombinantly expressed in P. pastoris (GIINTLQKYYCRVRGGRCAVLSCLPKEEQIGKCSTRGRACCRRKK; UniProt P81534 23-67, looked up, variant K39A)
ability to induce ATP release from ATP-encapsulated liposomes compared to wild-type HBD-3 [1]: impaired | tumour cell cytotoxicity compared to wild-type HBD-3 [2]: reduced tumour cell cytotoxicity | fold higher IC50 compared to wild-type HBD-3 [3]: two-fold | binding to PA on PIP strip compared to wild-type HBD-3 [4]: maintaining binding to PA | binding to phosphoinositides/lipids on PIP strip [4]: pronounced loss of PIP binding | blocking of anti-PI(4,5)P2 antibody binding (overall fluorescence intensity vs untreated control) [5]: essentially the same as that of the untreated control | fold higher IC50 compared to wild-type HBD-3 [6]: three-fold

L-α-phosphatidylinositol-3,4,5-trisphosphate [PI(3,4,5)P3]
reduced PI-positivity (inhibition of HBD-3 mediated PI uptake by lipid) [7]: 100%

HBD-3(K32A): alanine mutant of HBD-3 at K32, recombinantly expressed in P. pastoris (GIINTLQKYYCRVRGGRCAVLSCLPKEEQIGACSTRGRKCCRRKK; ends and bridges not checked; cysteine pairing not given here; UniProt P81534 23-67, looked up, variant K32A)
ability to induce ATP release from ATP-encapsulated liposomes compared to wild-type HBD-3 [1]: impaired | tumour cell cytotoxicity compared to wild-type HBD-3 [2]: reduced tumour cell cytotoxicity | binding to PA on PIP strip compared to wild-type HBD-3 [4]: substantially retained | binding to phosphoinositides/lipids on PIP strip [4]: much lower levels

L-α-phosphatidylinositol-4-phosphate [PI(4)P]
reduced PI-positivity (inhibition of HBD-3 mediated PI uptake by lipid) [7]: did not show any significant inhibition

Nicotiana alata defensin 1 (RECKTESNTFPGICITKPPCRKACISEKFTDGHCSKILRRCLCTKPC; UniProt Q8GTM0 26-72, looked up) [NaD1]
concentrations selectively killing a broad spectrum of tumour cells [8]: low micromolar concentrations

LL-37: another CAP that exhibits non-PI(4,5)P2-dependent detergent-like and/or pore-forming membrane disruption (LLGDFFRKSKEKIGKEFKRIVQRIKDFLRNLVPRTES; Antibacterial peptide LL-37; UniProt P49913 134-170, looked up) [reference compound]
susceptibility of neomycin pre-incubated cells to permeabilisation compared to untreated control [9]: not

L-α-phosphatidylcholine [PC]
reduced PI-positivity (inhibition of HBD-3 mediated PI uptake by lipid) [7]: did not show any significant inhibition

L-α-phosphatidylinositol-4,5-bisphosphate [PI(4,5)P2]
reduced PI-positivity (inhibition of HBD-3 mediated PI uptake by lipid) [7]: ~50%

L-α-phosphatidic acid [PA]
reduced PI-positivity (inhibition of HBD-3 mediated PI uptake by lipid) [7]: enhanced permeabilisation

L-α-phosphatidylserine [PS]
reduced PI-positivity (inhibition of HBD-3 mediated PI uptake by lipid) [7]: ~15%

L-α-phosphatidylinositol-3,5-bisphosphate [PI(3,5)P2]
reduced PI-positivity (inhibition of HBD-3 mediated PI uptake by lipid) [7]: did not show any significant inhibition

L-α-phosphatidylethanolamine [PE]
reduced PI-positivity (inhibition of HBD-3 mediated PI uptake by lipid) [7]: did not show any significant inhibition
